Data set [1] has as its system fast axonal transport (FAT) in isolated squid axoplasm. In words: Squid axoplasm motility assays (vesicle motility). It counts as cell-based, Loligo pealii. Conditions: for prevention of 2-18 peptide-induced anterograde FAT inhibition: co-perfused with 2-18 peptide; for prevention of 2-18 peptide-induced anterograde FAT inhibition / prevention of 6D tau-mediated anterograde FAT inhibition: I-2 50 nM; for prevention of 6D tau-mediated anterograde FAT inhibition: co-perfused with 6D tau, okadaic acid 200 nM; for effect on FAT (axonal transport): perfused alone into squid axoplasm (tau 2 μM; ING-135 100 nM); for effect on anterograde FAT rates / effect on retrograde FAT rates: perfused into isolated squid axoplasm; for effect on anterograde FAT rates: 2 μM.

The test system is the same in data set [2]. As to conditions: cited from earlier work.
The target in data set [3] is T1, fyn kinase (Homo sapiens, UniProt P06241).
T1 construct: purchased Millipore
T1 sequence (P06241 whole entry): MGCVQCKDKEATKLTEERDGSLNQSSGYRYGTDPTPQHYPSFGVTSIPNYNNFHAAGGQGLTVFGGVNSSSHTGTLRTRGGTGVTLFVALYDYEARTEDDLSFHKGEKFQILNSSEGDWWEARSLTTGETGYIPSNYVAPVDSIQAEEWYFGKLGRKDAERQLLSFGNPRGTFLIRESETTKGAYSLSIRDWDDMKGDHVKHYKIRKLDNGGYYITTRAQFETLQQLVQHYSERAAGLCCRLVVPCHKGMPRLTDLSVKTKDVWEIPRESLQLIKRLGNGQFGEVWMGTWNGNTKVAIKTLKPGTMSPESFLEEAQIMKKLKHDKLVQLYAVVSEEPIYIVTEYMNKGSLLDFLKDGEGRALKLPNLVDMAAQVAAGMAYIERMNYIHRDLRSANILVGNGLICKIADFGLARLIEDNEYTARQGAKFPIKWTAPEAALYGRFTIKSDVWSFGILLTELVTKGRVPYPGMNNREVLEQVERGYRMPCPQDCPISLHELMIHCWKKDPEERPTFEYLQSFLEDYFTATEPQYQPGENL
Nature of the data set: In vitro phosphorylation of tau by fyn kinase. It counts as biochemical. As to conditions: compared to wild-type tau; 1 μM tau. Here is the method:
Samples were heated to 60° C. for 5 minutes and separated on 10% acrylamide gels via SDS-PAGE. The proteins were transferred to nitrocellulose membranes, blocked in 2% non-fat dry milk Tris-buffered saline (NFDM-TBS; Tris 50 mM, NaCl 150 mM, pH 7.4). The membranes were incubated in primary antibodies (R1-1:300,000 and 9G3-1:8000) overnight at 4° C. The next day, the membranes were rinsed in TBS+0.1% TWEEN 20 and then incubated in the appropriate secondary antibody (1:5000; diluted in 2% NFDM-TBS). Immunoreactivity was visualized using ECL solution and the level of reactivity was quantified by measuring the optical density of immunoreactive bands with ImageJ software (v1.41, NIH). The average pixel intensities of the main tau bands were measured. Data are expressed as the ratio of 9G3 intensity to R1 intensity (error bars—s.e.m.).
Phosphorylation was carried out at 32° C. for […]. Samples were diluted 1:1 in 2× Laemmli buffer at 0, 10, 20, 40, and 60 minutes to stop the reaction. Samples were stored at −20° C. until used for immunoblotting.
Fyn kinase is a non-receptor tyrosine kinase known to phosphorylate tau at Tyr18 and phosphoTyrl8 (pTyr18) and is found in tau inclusions of AD brains (Lee, et al. (2004) supra). Phosphorylation at Tyr18 by fyn kinase prevents tau-mediated inhibition of anterograde FAT in squid axoplasm.

Data set [4] has as its system endogenous squid microtubules. In words: Microtubule-binding (sedimentation) assay. As to conditions: 5 μM tau construct, squid optic lobe cytosol.
The test system of data set [5] is kinesin-1 associated with vesicles. Nature of the data set: Motor proteins on membrane vesicle fractions purified from squid axoplasms. Conditions: 40 minutes incubation.
Experimental: After 40 minutes of incubation, axoplasms were transferred, along with perfusion buffer, to low protein binding 1.5 ml centrifuge tubes containing 200 μl of homogenization buffer (0.25 mM sucrose, 1 mM EDTA, 10 mM Hepes, pH 7.4, 1/100 protease inhibitor cocktail (Sigma), 1/200 phosphatase inhibitor cocktail set II (Calbiochem), 2 μM K252a (Calbiochem), 1 μM PKI (Upstate, Lake Placid, N.Y.)), and carefully homogenized by two passages through a 23-G syringe needle and five passages through a 27-G syringe needle using a 1-ml Hamilton pipette. Axoplasm homogenates were adjusted to 30% iodixanol by mixing 200 μl of axoplasm homogenates with 300 μl of solution D (50% (w/v) iodixanol, 10 mM MgCl2 in 250 mM sucrose). […] Samples were centrifuged at 250,000 g max for 1 hour at 4° C. in an RP55-S SORVALL rotor. Three hundred microliters containing floating vesicles were collected from immediately below the 5% iodixanol interface, and 60 μl of 6× loading sample buffer was added.
To determine whether tau filaments induce the dissociation of kinesin-1 from cargo, “sister” axoplasms were obtained from individual animals and treated with monomeric or filamentous hTau40 (2 μM). […] After 40 minutes of incubation, axoplasmic vesicle fractions were isolated and kinesin-1 levels were evaluated with an antibody against KHCs. […]
Data set [6] deals with squid microtubules. In words: Microtubule morphology at axoplasm periphery after perfusion. It counts as cell-based. As to conditions: 2 μM perfused into axoplasm. The text has this:
Microtubule rigidity is increased when tau binds to the microtubule surface, and this effect is observable even at low, nonsaturating tau concentrations (Feigner, et al. (1997) J. Cell Biol. 138:1067-1075; Morfini, et al. (2007) supra). As an additional indicator of hTau40's ability to interact with squid microtubules, axoplasm was perfused with tau and the morphology of microtubules at the axoplasm periphery was examined.

The target in data set [7] is PP2A (Homo sapiens, UniProt P67775). Conditions: even at micromolar concentrations; cited from earlier work.
Sequence of PP2A (P67775 whole entry): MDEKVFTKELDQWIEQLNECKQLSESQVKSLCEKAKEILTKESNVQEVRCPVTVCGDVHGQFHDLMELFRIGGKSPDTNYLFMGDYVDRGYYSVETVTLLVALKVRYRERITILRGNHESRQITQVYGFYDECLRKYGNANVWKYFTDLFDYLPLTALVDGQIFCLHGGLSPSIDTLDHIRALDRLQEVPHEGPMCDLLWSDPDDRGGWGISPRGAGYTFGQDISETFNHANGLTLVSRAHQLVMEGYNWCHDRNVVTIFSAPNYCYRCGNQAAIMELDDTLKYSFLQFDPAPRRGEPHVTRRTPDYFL
Data set [8] is described as follows: Tau polymerization with arachidonic acid, electron microscopy. Conditions: 4 μM tau, 75 μM arachidonic acid. It counts as physicochemical. Here is the method:
Tau polymerization was induced using AA according to known methods (King, et al. (1999) Biochemistry 38:14851-14859), except that KCl was substituted for NaCl in the polymerization buffer. […] Briefly, tau protein (4 μM) was incubated at room temperature in reaction buffer (50 mM HEPES, pH 7.6, 50 mM KCl, 5 mM DTT) in the presence of 75 μM AA (in ethanol vehicle). Samples of soluble tau were prepared for perfusion in the same manner, except that arachidonic acid was excluded from the polymerization buffer. Control mixtures containing AA but lacking tau were prepared in parallel. Final ethanol concentration in all samples was 3.8%.
Polymerization reactions were allowed to proceed for 6 hours, fixed with 2% glutaraldehyde, spotted onto 300 mesh formvar/carbon-coated copper grids (Electron Microscopy Sciences, Hatfield, Pa.), and negatively stained with 2% uranyl acetate (King, et al. (1999) supra). […]
To determine whether these domains are involved in FAT inhibition, two tau constructs were assayed, Δ2-18 and 1-421, containing deletions at the extreme amino- and carboxy-termini, respectively. […] Therefore, the formation of tau filaments under these experimental conditions was assessed by electron microscopic analysis.

Setting [9] is: coperfused with hTau40 filaments (2 μM), SB203580 5 μM, CREBpp 0.5 mM, ING-135 100 nM, okadaic acid 100 nM, inhibitor-2 50 nM.

Like-named read-outs stand apart in the source and are kept apart here. Square brackets hold non-standard residues; d marks the D form. Ends that are not written are not given here. pS = N[C@@H](COP(=O)(O)O)C(=O)O

Consider `Cn1cc(C2=C(c3coc4ccccc34)C(=O)NC2=O)c2cc(Br)ccc21` [ING-135, reference compound], for which, in data set [1] (ING-135 100 nM), the “prevention of 2-18 peptide-induced anterograde FAT inhibition” value was “completely prevented” and the “prevention of 6D tau-mediated anterograde FAT inhibition” value is reported as “completely blocked”. In addition, in data set [1] (setting [9]), the “block of tau filament-induced inhibition of anterograde FAT” value is “blocked”. In addition, in data set [1], the “effect on FAT (axonal transport)” value was “had no effect”.
With `C[S+]([O-])c1ccc(-c2nc(-c3ccncc3)c(-c3ccc(F)cc3)[nH]2)cc1` (centres unmarked) [SB203580, reference compound], the “block of tau filament-induced inhibition of anterograde FAT” value in data set [1] is on record as “did not block”.
Regarding `C=C1[C@@H](O)[C@@H]2O[C@]3(CC[C@H](/C=C/[C@@H](C)[C@@H]4CC(C)=C[C@@]5(O[C@H](C[C@@](C)(O)C(=O)O)CC[C@H]5O)O4)O3)CC[C@H]2O[C@@H]1[C@@H](O)C[C@H](C)[C@H]1O[C@@]2(CCCCO2)CC[C@H]1C` [okadaic acid, reference compound], the “prevention of 6D tau-mediated anterograde FAT inhibition” value in data set [1] (ING-135 100 nM) is given as “abolished”. Moreover, the “prevention of 6P tau-mediated anterograde FAT inhibition” value in data set [1] (co-perfused with 6P tau) is listed as “The same effect was noted”. The “block of tau filament-induced inhibition of anterograde FAT” value in data set [1] (setting [9]) is on record as “blocked”. Further, the “effect on FAT, perfused alone” value in data set [2] (okadaic acid alone, concentrations up to 1 μM) is on record as “have no effect”.
Take AEPRQEFEVMEDHAGTY [2-18 peptide]: the figures for the “effect on anterograde FAT rates” value in data set [1] and in data set [1] (listed as PAD) were “induced a significant inhibition” and “inhibit”, respectively.
As for “AT8 tau: tau with Ser199, Ser202, Thr205 mutated to glutamic acid, AT8 pseudophosphorylated mutant”, in data set [1], the “effect on retrograde FAT rates” value is “unaffected” and the “effect on anterograde FAT rates” value was “significantly reduced”. In data set [3], the “maximal level of phosphorylation at Tyr18 by fyn kinase” value is listed as “lower” and the “rate of phosphorylation at Tyr18 by fyn kinase” value was “slower”.
Regarding “K23: tau construct lacking both alternatively spliced N-terminal exons and all four MTBRs [reference compound]”, the “sedimentation with taxol-assembled squid microtubules (supernatant vs pellet)” value in data set [4] is on record as “remained in the supernatant fraction”.
Take “KRREILSRRPpSYR (KRREILSRRP[pS]YR) [CREBpp, reference compound]”: the “block of effects of 1-421 tau filaments on FAT” value in data set [1] (coperfused with 1-421 tau filaments) is on record as “also blocked”. For the same molecule, the “block of tau filament-induced inhibition of anterograde FAT” value in data set [1] (setting [9]) was “blocked”. The “effect on FAT, perfused alone” value in data set [2] (CREBpp alone in squid axoplasm) is on record as “has no effect”.
As for “active GSK-3β: recombinant, active GSK-3β from Sigma [reference compound]”, in data set [5], the “levels of dynein intermediate chain on vesicles” value is “unaffected”.
For the molecule “hTau40 filaments: recombinant hTau40 polymerized into filaments with arachidonic acid”, in data set [1], the “effect on FAT (axonal transport)” value is listed as “inhibition”, the “effect on retrograde FAT rates” value is reported as “remained unaffected” and the “effect on anterograde FAT rates” value was “inhibited”. Besides, the “effect on anterograde FAT rates” value in data set [1] (listed as hTau40 F) was “significantly reduced”. The “effect on anterograde FAT rates” value in data set [1] (listed as tau filaments) was “inhibit”. The “morphology of peripheral microtubules” value in data set [6] is recorded as “did not produce changes in microtubule morphology”. For the same molecule, the “levels of dynein intermediate chain on vesicles” value in data set [5] is given as “unaffected”.
inhibitor-2 [reference compound]: in data set [1] (ING-135 100 nM), the “prevention of 2-18 peptide-induced anterograde FAT inhibition” value was “completely prevented” and the “prevention of 6D tau-mediated anterograde FAT inhibition” value is reported as “complete prevention”. The “block of tau filament-induced inhibition of anterograde FAT” value in data set [1] (setting [9]) was “prevented FAT inhibition”. Also, in data set [7], the “effect on PP2A” value is recorded as “has no effect”.
Consider “monomeric hTau40: full-length tau, longest isoform in adult human brain, 441 amino acids, soluble monomer”, for which the “effect on FAT (axonal transport)” value in data set [1] (listed as full-length wild-type tau monomers) is recorded as “had no effect”. Besides, in data set [1] (listed as soluble tau), the “effect on FAT (axonal transport)” value is “does not affect”. In data set [1], the “effect on retrograde FAT rates” value is recorded as “no effect” and the “effect on anterograde FAT rates” value is “no effect”. Moreover, the “sedimentation with taxol-assembled squid microtubules (supernatant vs pellet)” value in data set [4] is “depleted from the supernatant fraction and found in association with the microtubule-enriched pellet fraction”. For the same molecule, in data set [6], the “morphology of peripheral microtubules” value is on record as “caused peripheral microtubules to acquire a straight, rigid appearance”. The “filament formation under axoplasm perfusion buffer conditions” value in data set [8] is reported as “form morphologically indistinguishable filaments”.

Source of the values: patent US9862761B2, “Composition and method for preventing or treating a tauopathy” (The Board of Trustees of the University of Illinois, priority 2009, dated 2018).
